pEC50, pIC50: −log10 of the molar value. Activity calls are given as the source filed them. The calls are words filed in the database; no cut-off is given here.
Tests used:
[1] = target: Serine/threonine-protein kinase PLK1 (Homo sapiens, UniProt P53350)
[2] = system: HCT-116; assay: cells; details: Homo sapiens
Description: Effect on cell cycle progression in human HCT116 cells assessed as mitotic arrest measured by doubling DNA content by High content screening

[3] = Selectivity for Plk1 over Plk2
[4] = Selectivity for Plk1 over Plk3
[5] = Selectivity for Plk1 over Aurora A
[6] = system: HeLa; assay: Decrease in B23 nucleophosmin phosphorylation in human HeLa cells at 5 uM after 16 hrs by Western blot analysis; type: functional, cell-based
[7] = system: HCT-116; assay: cells; details: Homo sapiens; remark: listed apart in the source
Description: Effect on cell cycle progression in human HCT116 cells assessed as mitotic arrest measured by doubling DNA content by fluorescence microscopy

[8] = system: HCT-116; assay: cells; details: Homo sapiens; remark: listed apart in the source
Description: Effect on cell cycle progression in human HCT116 cells assessed as increase in phospho-histone H3 by fluorescence microscopy

Sequence of Serine/threonine-protein kinase PLK1 (P53350 whole entry): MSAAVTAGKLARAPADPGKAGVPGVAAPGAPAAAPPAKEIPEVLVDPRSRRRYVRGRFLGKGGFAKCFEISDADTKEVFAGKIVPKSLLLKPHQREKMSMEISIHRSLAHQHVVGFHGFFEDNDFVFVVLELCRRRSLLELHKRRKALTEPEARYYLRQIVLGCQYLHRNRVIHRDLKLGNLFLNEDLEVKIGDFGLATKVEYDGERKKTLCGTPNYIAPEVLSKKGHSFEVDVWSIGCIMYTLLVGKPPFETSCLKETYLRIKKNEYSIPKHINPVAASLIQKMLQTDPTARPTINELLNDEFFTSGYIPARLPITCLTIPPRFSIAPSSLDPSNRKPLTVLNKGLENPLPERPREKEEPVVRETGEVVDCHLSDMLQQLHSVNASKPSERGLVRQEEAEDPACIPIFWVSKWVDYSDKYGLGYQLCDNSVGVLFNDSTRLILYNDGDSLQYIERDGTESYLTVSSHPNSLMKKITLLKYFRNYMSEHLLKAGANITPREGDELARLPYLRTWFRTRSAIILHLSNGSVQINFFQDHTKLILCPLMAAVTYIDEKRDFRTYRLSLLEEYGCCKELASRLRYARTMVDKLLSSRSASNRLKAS

Row | pIC50 [1] | pEC50 [2] | SMILES | also measured
1 | 5.23 |  | COc1cccc(-n2nc(C)c3cnc(N[C@@H](C)c4ccccc4)cc32)c1 | 
2 | 6.56 |  | Cc1nn(-c2cc(Cl)cc(Br)c2)c2cc(N[C@@H](C)c3ccccc3)ncc12 | 
3 | 6.32 |  | Cc1cccc(-n2nc(C)c3cnc(N[C@@H](C)c4ccccc4)cc32)c1 | 
4 | 6.83 |  | Cc1cc(C)cc(-n2nc(C)c3cnc(N[C@@H](C)c4ccccc4)cc32)c1 | 
5 | 7.30 | 5.61 | C[C@H](Nc1cc2c(cn1)cnn2-c1ccccc1C(N)=O)c1ccccc1 | Selectivity ratio [3]: 50; Selectivity ratio [4]: 50; Selectivity ratio [5]: 150; Activity [6]: Active; pEC50 [7]: 5.72; pEC50 [8]: 5.77
6 | 5.35 |  | Cc1nn(-c2ccccc2F)c2cc(N[C@@H](C)c3ccccc3)ncc12 | 
7 | 4.84 |  | COc1ccccc1-n1nc(C)c2cnc(N[C@@H](C)c3ccccc3)cc21 | 
8 | 6.65 |  | Cc1nn(-c2cccc(S(C)(=O)=O)c2)c2cc(N[C@@H](C)c3ccccc3)ncc12 | 
9 | 6.39 |  | Cc1nn(-c2cccc(C#N)c2)c2cc(N[C@@H](C)c3ccccc3)ncc12 | 
10 | 6.15 |  | COc1ccc(-n2nc(C)c3cnc(N[C@@H](C)c4ccccc4)cc32)cc1 | 
11 | 5.11 |  | Cc1ccccc1-n1nc(C)c2cnc(N[C@@H](C)c3ccccc3)cc21 | 
12 | 6.19 |  | Cc1nn(-c2cc(Cl)cc(Cl)c2)c2cc(N[C@@H](C)c3ccccc3)ncc12 | 
13 | 5.83 |  | Cc1nn(-c2cccc(C(C)C)c2)c2cc(N[C@@H](C)c3ccccc3)ncc12 | 
14 | 7.23 | 5.24 | Cc1nn(-c2cc(Cl)cc(CCCN)c2)c2cc(N[C@@H](C)c3ccccc3)ncc12 | 
15 |  |  | CCOC(=O)C1=C(C)NC(=S)NC1c1cccc(O)c1 (centres undefined) [MONASTROL] | pEC50 [7]: 5.92; pEC50 [8]: 5.82
16 |  | < 4.70 | Cc1nn(-c2cccc(Cl)c2)c2cc(N[C@@H](C)c3ccccc3)ncc12 | 
17 | 6.33 |  | Cc1nn(-c2cccc(F)c2)c2cc(N[C@@H](C)c3ccccc3)ncc12 | 
18 | 5.49 |  | Cc1nn(-c2ccc(F)cc2)c2cc(N[C@@H](C)c3ccccc3)ncc12 | 
19 | 7.32 | 5.04 | Cc1nn(-c2cc(Cl)cc(CCC(=O)NCCO)c2)c2cc(N[C@@H](C)c3ccccc3)ncc12 | 
20 | 7.38 | 5.44 | Cc1nn(-c2ccccc2C(N)=O)c2cc(N[C@@H](C)c3ccccc3)ncc12 | 
21 | 5.34 |  | Cc1ccc(-n2nc(C)c3cnc(N[C@@H](C)c4ccccc4)cc32)cc1 | 
22 | 6.01 |  | Cc1nn(-c2cccc(N(C)C)c2)c2cc(N[C@@H](C)c3ccccc3)ncc12 | 

Row | SMILES | pIC50 [1] | pEC50 [2] | also measured
23 | Cc1nn(-c2cc(Cl)cc(CCC(=O)O)c2)c2cc(N[C@@H](C)c3ccccc3)ncc12 | 7.68 | < 4.70 | 
24 | CC(=O)Nc1ccccc1-c1cc(Cl)cc(-n2nc(C)c3cnc(N[C@@H](C)c4ccccc4)cc32)c1 | 6.68 | < 4.70 | 
25 | Cc1nn(-c2cc(Cl)cc(CCC(N)=O)c2)c2cc(N[C@@H](C)c3ccccc3)ncc12 | 7.49 | 5.03 | 
